The values that follow come from patent publication US20250171437A1 (Agios Pharmaceuticals,Inc., priority 2022, published 2025).

SMILES strings stand for the structures.

The target in this experiment is T1, human PAH with the R408W mutation (A375 R408W cells) (Homo sapiens, UniProt P00439, R408W).
T1 construct: expressed in transfected cells
T1 sequence (P00439 1-452 R408W): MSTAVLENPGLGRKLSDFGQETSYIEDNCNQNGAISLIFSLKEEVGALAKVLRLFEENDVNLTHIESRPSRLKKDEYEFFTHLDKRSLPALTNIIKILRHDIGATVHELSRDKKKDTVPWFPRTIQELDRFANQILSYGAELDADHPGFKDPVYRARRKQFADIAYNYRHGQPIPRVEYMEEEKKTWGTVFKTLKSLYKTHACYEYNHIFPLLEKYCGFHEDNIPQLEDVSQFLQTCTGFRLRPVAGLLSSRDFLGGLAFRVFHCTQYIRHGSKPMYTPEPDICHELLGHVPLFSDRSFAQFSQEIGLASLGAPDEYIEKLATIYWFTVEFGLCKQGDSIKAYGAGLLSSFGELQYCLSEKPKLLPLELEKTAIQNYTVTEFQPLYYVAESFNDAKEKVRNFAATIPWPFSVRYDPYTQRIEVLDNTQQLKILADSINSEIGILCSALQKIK
Briefly: Cell Based Phenylalanine Flux Assay. The settings on record: 24 hrs with compound, then 20 μM sepiapterin and 800 μM 13C9,15N-Phenylalanine for 4 hours, 13C-Tyrosine by LC-MS, average where tested multiple times. An outline of the steps:
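A375 cells stably expressing human PAH R408W treated 24 h at 37° C with a 10-point 2-fold dose curve in duplicate, 0.5% DMSO. Then 20 μM sepiapterin and 800 μM 13C9,15N-Phe added for 4 h; 13C-Tyr in media measured by LC-MS to give AC50.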

[1] abbreviates: A375 cells expressing R408W PAH.

By AC50 is commonly meant the midpoint of the concentration-response curve, whichever way the signal moves. Consider `Cc1ccc2c(C(=O)N3CCc4[nH]cnc4[C@H]3c3nc4c(F)cccc4o3)cnn2c1` [Example 537, (S)-(4-(4-fluorobenzo[d]oxazol-2-yl)-6,7-dihydro-1H-imidazo[4,5-c]pyridin-5(4H)-yl)(6-methylpyrazolo[1,5-a]pyridin-3-yl)methanone], for which the AC50 (A375 R408W cells) was no more than 500 nM.

With `Cn1nc(C(F)F)nc1C(=O)N1CCc2[nH]cnc2[C@@H]1c1nc2cc(F)cc(F)c2o1` [Example 578, (R)-(4-(5,7-difluorobenzo[d]oxazol-2-yl)-6,7-dihydro-1H-imidazo[4,5-c]pyridin-5(4H)-yl)(3-(difluoromethyl)-1-methyl-1H-1,2,4-triazol-5-yl)methanone], the AC50 (A375 R408W cells) was 1000 to 5000 nM.

Turning to `O=C(C1CC1)N1CCc2[nH]cnc2[C@@H]1c1nc2cc(F)ccc2o1` (single isomer, unassigned), the AC50 under setting [1] was no less than 5000 nM.

`CC(C)(O)c1nnc(C(=O)N2CCc3[nH]cnc3C2c2nc3c(F)ccc(F)c3o2)o1` (stereo not shown): under setting [1], the AC50 was in the range of 1000 to 5000 nM.

Take `O=C(c1nnc(-c2ncccc2F)o1)N1CCc2[nH]cnc2[C@@H]1c1nc2cccc(C(F)(F)F)c2o1` [Example 839, (R)-(5-(3-fluoropyridin-2-yl)-1,3,4-oxadiazol-2-yl)(4-(7-(trifluoromethyl)benzo[d]oxazol-2-yl)-6,7-dihydro-1H-imidazo[4,5-c]pyridin-5(4H)-yl)methanone]: the AC50 (A375 R408W cells) lay in the range of 500 to 1000 nM.

In the case of `O=C(c1oc(C2CCN2)nc1C(F)F)N1CCc2[nH]cnc2C1c1nc2cc(F)ccc2o1` (stereo not shown), the AC50 under setting [1] was in the range of 1000 to 5000 nM.

With `CC(C)(O)c1nc(C(F)F)c(C(=O)N2Cc3[nH]cnc3[C@H]2c2nc3ccccc3o2)o1` [Example 947, (S)-(4-(benzo[d]oxazol-2-yl)-4,6-dihydropyrrolo[3,4-d]imidazol-5(1H)-yl)(4-(difluoromethyl)-2-(2-hydroxypropan-2-yl)oxazol-5-yl)methanone], the AC50 (A375 R408W cells) was no less than 5000 nM.

As for `COCc1ccc2c(C(=O)N3CCc4[nH]cnc4C3c3nc4ccc(F)cc4o3)cnn2c1` (stereo not shown) [listing 1 of 2 here], the AC50 under setting [1] was in the range of 1000 to 5000 nM.

With `Cc1nc(C(C)O)oc1C(=O)N1CCc2[nH]cnc2C1c1nc2ccc(F)cc2o1` (stereo not shown), the AC50 under setting [1] is no less than 5000 nM.

Regarding `O=C(c1ocnc1C(F)F)N1CCc2[nH]cnc2[C@@H]1c1nc2c(OC(F)(F)F)cccc2o1` [Example 535, (R)-(4-(difluoromethyl)oxazol-5-yl)(4-(4-(trifluoromethoxy)benzo[d]oxazol-2-yl)-6,7-dihydro-1H-imidazo[4,5-c]pyridin-5(4H)-yl)methanone], under “A375 R408W cells”, the AC50 was no more than 500 nM.

As to `Cc1cccc2nc(C3c4nc[nH]c4CCN3C(=O)c3cc(C(C)(C)C)nn3C)oc12` (stereo not shown), the half-maximal activity concentration (AC50) under setting [1] is 1000 to 5000 nM.

On to `O=C(c1ccnn1C(F)F)N1CCc2[nH]cnc2[C@@H]1c1nc2ccc(F)c(F)c2o1` [Example 514, (R)-(4-(6,7-difluorobenzo[d]oxazol-2-yl)-6,7-dihydro-1H-imidazo[4,5-c]pyridin-5(4H)-yl)(1-(difluoromethyl)-1H-pyrazol-5-yl)methanone], for which the AC50 (A375 R408W cells) lay in the range of 1000 to 5000 nM.

Consider `CN(C)CCc1cn2ncc(C(=O)N3CCc4[nH]cnc4[C@@H]3c3nc4cc(F)ccc4o3)c2cc1Cl` [Example 80, (R)-(5-chloro-6-(2-(dimethylamino)ethyl)pyrazolo[1,5-a]pyridin-3-yl)(4-(5-fluorobenzo[d]oxazol-2-yl)-6,7-dihydro-1H-imidazo[4,5-c]pyridin-5(4H)-yl)methanone], for which, where the note is “A375 R408W cells”, the AC50 lay within 1000 to 5000 nM.

For `COCc1ccc2c(C(=O)N3CCc4[nH]cnc4C3c3nc4ccc(F)cc4o3)cnn2c1` (stereo not shown) [listing 2 of 2 here], the AC50 under setting [1] is no less than 5000 nM.

`COCc1nc(C(F)F)c(C(=O)N2CCc3[nH]cnc3[C@H]2c2nc3cc(F)ccc3o2)o1` [Example 110, (S)-(4-(difluoromethyl)-2-(methoxymethyl)oxazol-5-yl)(4-(5-fluorobenzo[d]oxazol-2-yl)-6,7-dihydro-1H-imidazo[4,5-c]pyridin-5(4H)-yl)methanone]: the AC50 (A375 R408W cells) lay in the range of 500 to 1000 nM.

Regarding `O=C(c1nnc(-c2cnn(C(F)F)c2)o1)N1CCc2[nH]cnc2C1c1nc2cc(C(F)(F)F)ccc2o1` (stereo not shown), the AC50 under setting [1] was no less than 5000 nM.

Regarding `COCc1ccc2c(C(=O)N3CCc4[nH]cnc4[C@@H]3c3nc4cccc(F)c4o3)cnn2c1` [Example 266, (R)-(4-(7-fluorobenzo[d]oxazol-2-yl)-6,7-dihydro-1H-imidazo[4,5-c]pyridin-5(4H)-yl)(6-(methoxymethyl)pyrazolo[1,5-a]pyridin-3-yl)methanone], where the note is “A375 R408W cells”, the AC50 is no less than 5000 nM.

`Cn1nc(C(F)F)nc1C(=O)N1CCc2[nH]cnc2C1c1nc2ccc(F)c(F)c2o1` (stereo not shown): the AC50 under setting [1] lay within 1000 to 5000 nM.

Regarding `O=C(c1nnc(-c2ccn(C(F)F)n2)o1)N1CCc2[nH]cnc2[C@@H]1c1nc2c(F)ccc(F)c2o1` [Example 815, (R)-(4-(4,7-difluorobenzo[d]oxazol-2-yl)-6,7-dihydro-1H-imidazo[4,5-c]pyridin-5(4H)-yl)(5-(1-(difluoromethyl)-1H-pyrazol-3-yl)-1,3,4-oxadiazol-2-yl)methanone], the AC50 (A375 R408W cells) was in the range of 500 to 1000 nM.

For the compound `CC(C)(O)c1nc(C(F)(F)F)c(C(=O)N2CCc3[nH]cnc3[C@H]2c2nc3ccc(F)cc3o2)o1` [Example 255, (S)-(4-(6-fluorobenzo[d]oxazol-2-yl)-6,7-dihydro-1H-imidazo[4,5-c]pyridin-5(4H)-yl)(2-(2-hydroxypropan-2-yl)-4-(trifluoromethyl)oxazol-5-yl)methanone], the AC50 (A375 R408W cells) is no more than 500 nM.

Take `CCOC(=O)N1CCN(c2ccc3c(C(=O)N4CCc5[nH]cnc5C4c4nc5cc(F)ccc5o4)cnn3c2)CC1` (stereo not shown): under setting [1], the AC50 was no less than 5000 nM.

Take `Cc1ccc2c(C(=O)N3CCc4[nH]cnc4[C@@H]3c3nc4c(F)cccc4o3)cnn2c1` [Example 538, (R)-(4-(4-fluorobenzo[d]oxazol-2-yl)-6,7-dihydro-1H-imidazo[4,5-c]pyridin-5(4H)-yl)(6-methylpyrazolo[1,5-a]pyridin-3-yl)methanone]: the half-maximal activity concentration (AC50) (A375 R408W cells) is 1000 to 5000 nM.

Take `CN(C)c1cn2ncc(C(=O)N3CCc4[nH]cnc4[C@@H]3c3nc4cc(F)ccc4o3)c2cc1Cl` [Example 208, (R)-(5-chloro-6-(dimethylamino)pyrazolo[1,5-a]pyridin-3-yl)(4-(5-fluorobenzo[d]oxazol-2-yl)-6,7-dihydro-1H-imidazo[4,5-c]pyridin-5(4H)-yl)methanone]: under “A375 R408W cells”, the AC50 was in the range of 1000 to 5000 nM.

`CC(C)(O)c1nc(C(F)F)c(C(=O)N2CC3(CC3)c3[nH]cnc3C2c2nc3cc(F)ccc3o2)o1` (stereo not shown): the AC50 under setting [1] is 1000 to 5000 nM.

For the compound `N#Cc1ccc2c(C(=O)N3CCc4[nH]cnc4C3c3nc4cc(F)ccc4o3)cnn2c1` (stereo not shown), under setting [1], the AC50 was 1000 to 5000 nM.

Turning to `Cn1nc(C(F)(F)F)nc1C(=O)N1CCc2[nH]cnc2C1c1nc2c(F)cccc2o1` (stereo not shown), the AC50 under setting [1] was in the range of 1000 to 5000 nM.

With `Cc1ccc2nc([C@H]3c4nc[nH]c4CCN3C(=O)c3oc(C(C)(C)O)nc3Br)oc2c1` [Example 440, (R)-(4-bromo-2-(2-hydroxypropan-2-yl)oxazol-5-yl)(4-(6-methylbenzo[d]oxazol-2-yl)-6,7-dihydro-1H-imidazo[4,5-c]pyridin-5(4H)-yl)methanone], the AC50 (A375 R408W cells) lay in the range of 1000 to 5000 nM.

Turning to `CCn1cnnc1C(=O)N1CCc2[nH]cnc2[C@H]1c1nc2cc(F)ccc2o1` [Example 885, (S)-(4-ethyl-4H-1,2,4-triazol-3-yl)(4-(5-fluorobenzo[d]oxazol-2-yl)-6,7-dihydro-1H-imidazo[4,5-c]pyridin-5(4H)-yl)methanone], where the note is “A375 R408W cells”, the AC50 lay in the range of 1000 to 5000 nM.

In the case of `CNC(C)(C)c1nc(C)c(C(=O)N2CCc3[nH]cnc3C2c2nc3cc(F)ccc3o2)o1` (stereo not shown), the AC50 under setting [1] was 1000 to 5000 nM.

In the case of `O=C([C@H]1CC1(F)F)N1CCc2[nH]cnc2[C@H]1c1nc2cc(F)ccc2o1` (single isomer, unassigned), the AC50 under setting [1] fell in the range of 1000 to 5000 nM.

Take `Cn1cc(-c2nnc(C(=O)N3CCc4[nH]cnc4[C@H]3c3nc4c(F)cccc4o3)o2)cn1` [Example 197, (S)-(4-(4-fluorobenzo[d]oxazol-2-yl)-6,7-dihydro-1H-imidazo[4,5-c]pyridin-5(4H)-yl)(5-(1-methyl-1H-pyrazol-4-yl)-1,3,4-oxadiazol-2-yl)methanone]: the AC50 (A375 R408W cells) was 500 to 1000 nM.

As to `O=C(c1nnc(-c2ccc(F)cc2)o1)N1CCc2[nH]cnc2[C@H]1c1nc2cc(F)ccc2o1` [Example 27, (S)-(4-(5-fluorobenzo[d]oxazol-2-yl)-6,7-dihydro-1H-imidazo[4,5-c]pyridin-5(4H)-yl)(5-(4-fluorophenyl)-1,3,4-oxadiazol-2-yl)methanone], the AC50 (A375 R408W cells) was no more than 500 nM.

Turning to `CC(C)(O)c1nc(CF)c(C(=O)N2CCc3[nH]cnc3[C@@H]2c2nc3cc(F)ccc3o2)o1` [Example 212, (R)-(4-(5-fluorobenzo[d]oxazol-2-yl)-6,7-dihydro-1H-imidazo[4,5-c]pyridin-5(4H)-yl)(4-(fluoromethyl)-2-(2-hydroxypropan-2-yl)oxazol-5-yl)methanone], where the note is “A375 R408W cells”, the half-maximal activity concentration (AC50) was 1000 to 5000 nM.

`O=C(c1ocnc1C(F)(F)F)N1CCc2[nH]cnc2[C@@H]1c1nc2cc(Br)ccc2o1` [Example 148, (R)-(4-(5-bromobenzo[d]oxazol-2-yl)-6,7-dihydro-1H-imidazo[4,5-c]pyridin-5(4H)-yl)(4-(trifluoromethyl)oxazol-5-yl)methanone]: the AC50 (A375 R408W cells) is no more than 500 nM.
